Reference: patent publication US20060008512A1, “Composition and methods for improved animal performance” (priority 2004, published 2006)
Read-outs that look alike come from different tables or passages of the source. Marks after values point to notes of the source that are not given here.

What was measured:
turkey breeder hens = assay: Experiment 7: molting of turkey breeder hens with dietary L-thyroxine, porcine thyroid powder or TIC with or without protease; type: in vivo; conditions: for Ending (10 d) Body Wt / Liver Weight / Ovary Weight / Oviduct Weight: turkey breeder hens, 6 per treatment
Text: Experiment 7. Molting of Turkey Breeder Hens with Dietary L-Thyroxine, Porcine Thyroid Powder, or Thyroactive Iodinated Casein With or Without Protease. Turkey breeder hens were molted with various dietary thyroxine treatments at Diamond K Research, […]. (Jun. 20-Jul. 1, 2005).

[1] = tested on: Cobb broiler breeder hens and roosters
Text: Molting Cobb Broiler Breeder Hens and Roosters with Dietary Thyroxine.

White Leghorn hens = conditions: excessive injected levels, e.g. 243 micrograms/100 g body weight; cited from earlier work
[2] = tested on: 66-week-old caged laying hens; conditions: cited from earlier work
young rats = conditions: 10 mg L-thyroxine/kg diet; 400 mg magnesium/kg; cited from earlier work
broiler chickens = conditions: 1 mg/kg of diet, 0 to 28 days of age, cited from earlier work
[3] = daily injections of 150 mcg/kg body weight; cited from earlier work
[4] = tested on: fast-growing broiler chickens; conditions: low ambient temperature and pelleted feed; untreated 21.5%; cited from earlier work
[5] = 10 mg T4/kg diet fed for 10 days
[6] = 25 mg T4/kg diet fed for 10 days
[7] = 40 mg T4/kg diet fed for 10 days

N[C@@H](Cc1cc(I)c(Oc2cc(I)c(O)c(I)c2)c(I)c1)C(=O)O [L-thyroxine, 3,5,3′,5′-tetraiodo-L-thyronine]
Ending (10 d) Body Wt (turkey breeder hens; [5]): 23.03 lb
Liver Weight (turkey breeder hens; [5]): 143.0^bc g
Ovary Weight (turkey breeder hens; [5]): 159.1^a g
Oviduct Weight (turkey breeder hens; [5]): 124.1^a g
Ending (10 d) Body Wt (turkey breeder hens; [6]): 25.11 lb
Liver Weight (turkey breeder hens; [6]): 144.6^b g
Ovary Weight (turkey breeder hens; [6]): 160.5^a g
Oviduct Weight (turkey breeder hens; [6]): 134.7^a g
Ending (10 d) Body Wt (turkey breeder hens; [7]): 22.99 lb
Liver Weight (turkey breeder hens; [7]): 141.9^bc g
Ovary Weight (turkey breeder hens; [7]): 129.1^a g
Oviduct Weight (turkey breeder hens; [7]): 138.7^a g
Regressing reproductive tracts (turkey breeder hens; 10, 20, or 40 mg T4/kg diet, 10 days): not as effective as porcine thyroid powder
Toxicity to broiler breeder males ([1]; 25 mg/kg diet or more): toxic to broiler breeder males (death)
Testes of broiler breeder males ([1]; 25 or 40 mg T4/kg diet): testes shown to enlarge
Adverse sign in roosters ([1]; 25 or 40 mg/kg diet): “stroke blood” from the nostrils
Time on treated feed until hens reduced feed intake, ceased egg production and began to molt feathers ([1]; Cobb broiler breeder hens, 25 or 40 ppm): 15 to 17 days
Tolerance of males for thyroxine (T4) alone ([1]; excess causes mortality): < 25 mg/kg diet
Mortality (White Leghorn hens): 47%
Days to target body weight (30% loss) ([2]; 1-day fast or no fast followed by corn diet with or without thyroxine): 28 days
Days to target body weight (30% loss) ([2]; 1-day feed withdrawal, then grape pomace diet plus 10 mg thyroxine/kg): 16 days
Egg production from 66 to 98 weeks ([2]; grape pomace diet plus thyroxine): 64.7%
Weight gain in 16 days (young rats): 60 g
Serum thyroxine level (broiler chickens; first experiment (control 41.1)): 88.7 ng/mL
Serum thyroxine level (broiler chickens; second experiment (control 21.1)): 69.3 ng/mL
Decrease in fiber diameter [3]: 7.8%
Increase in mohair length growth rate [3]: 15%
Ascites [4]: 7%
